Measured values: patent publication EP1444982A1, “The use of purine derivatives as selective kinase inhibitors” (MERCKLE GMBH, priority 2003, dated 2004)

Assays:
Assay type in all cases: biochemical
c-RAF (h) = c-RAF (h) (Homo sapiens, UniProt P04049); test: Kinase inhibition assay (33P-ATP, P30 filter, scintillation counting): c-RAF; conditions: 40 min; 30µM Testsubstanz (100 µM ATP); read-out: Hemmung von Kinasen in % c-RAF (h)
Method: (§1) Alle Kinasen werden auf zehnfache Arbeitskonzentration vor Anwendung in dem Essay verdünnt. Die Zusammensetzung des Verdünnungspuffers ist für jede Kinase in der nachfolgenden Tabelle angegeben.
(§2) Alle Substrate werden gelöst und auf eine Stammlösung in entsalztem Wasser verdünnt.
(§3) c-RAF (ha)(5-10 mU) in einem Endreaktionsvolumen von 25 µl wird mit 25 mM Tris pH 7.5,.0.02 mM EGTA, 0.66 mg/ml Myelin-Basisprotein, 10 mM MgAcetat und [γ-^33P-ATP] inkubiert (spezifische Aktivität etwa 50 cpm/pmol, Konzentration wie erforderlich). Die Reaktion wird durch Zugabe von Mg^2+[γ-^33P-ATP] initiiert. Nach 40-minütiger Inkubation bei Raumtemperatur wird die Reaktion durch Zugabe von 5 µl einer 3 %igen Phosphorsäurelösung gestoppt. 10 µl der Reaktion werden dann auf ein P30-Filter gegeben und dreimal jeweils 5 Minuten in 50 mM Phosphorsäure und einmal in Methanol gewaschen. Anschließend wird getrocknet und eine Szintillationszählung durchgeführt.

GSK3β (h) = GSK3β (h) (Homo sapiens, UniProt P49841); test: Kinase inhibition assay (33P-ATP, P30 filter, scintillation counting): GSK3β; conditions: 30µM Testsubstanz (100 µM ATP); read-out: Hemmung von Kinasen in % GSK3β (h)
Method: as §1, §2
as §3, with “GSK3β (h)(5-10mU) in” for “c-RAF (ha)(5-10 mU) in”, “mit 8” for “mit 25”, “mM MOPS” for “mM Tris”, “pH 7.0, 0.2” for “pH 7.5,.0.02”, “mM EDTA, 20 µM […](p) EDEEE (phospho GS2 Peptid),” for “mM EGTA, 0.66 mg/ml Myelin-Basisprotein,”, “etwa 500” for “etwa 50”

JNK3 (r) = JNK3 (r) (Rattus norvegicus, UniProt P49187); test: Kinase inhibition assay: JNK3; conditions: 30µM Testsubstanz (100 µM ATP); read-out: Hemmung von Kinasen in % JNK3 (r)
Description: as §1, §2

Lck (h) = Lck (h) (Homo sapiens, UniProt P06239); test: Kinase inhibition assay (33P-ATP, P30 filter, scintillation counting): Lck; conditions: 30µM Testsubstanz (100 µM ATP); read-out: Hemmung von Kinasen in % Lck (h)
Method: as §1, §2
as §3, with “Lck (h)(5-10 mU)” for “c-RAF (ha)(5-10 mU)”, “mit 50” for “mit 25”, “pH 7.5, 0.1” for “pH 7.5,.0.02”, “EGTA, 0.1 mM NaVanadate, 250 µM KVEKIGEGTYGVVYK (Cdc2 Peptid),” for “EGTA, 0.66 mg/ml Myelin-Basisprotein,”, “etwa 500” for “etwa 50”

MAPK1 (h) = MAPK1 (h) (Homo sapiens, UniProt P27361); test: Kinase inhibition assay: MAPK1; conditions: 30µM Testsubstanz (100 µM ATP); read-out: Hemmung von Kinasen in % MAPK1 (h)
Description: as §1, §2

MAPK2 (h) = MAPK2 (h) (Homo sapiens, UniProt P28482); test: Kinase inhibition assay: MAPK2; conditions: 30µM Testsubstanz (100 µM ATP); read-out: Hemmung von Kinasen in % MAPK2 (h)
Description: as §1, §2

MEK1 (h) = MEK1 (h) (Homo sapiens, UniProt Q02750); test: Kinase inhibition assay: MEK1 (coupled to MAPK2 assay); conditions: 30µM Testsubstanz (100 µM ATP); read-out: Hemmung von Kinasen in % MEK1 (h)
Method: as §1, §2
MEK1 (h)(1-5 mU) in einem Endreaktionsvolumen von 25 µl wird mit 50 mM Tris pH 7.5, 0.2 mM EGTA, 0.1 % b-Mercaptoethanol, 0,01 % Brij-35, 1 µM inaktives MAPK2 (m), 10 mM MgAcetat und kaltem ATP inkubiert (Konzentration wie erforderlich). Die Reaktion wird durch Zugabe von MgATB initiiert. Nach 40-minütiger Inkubation bei Raumtemperatur werden […] dieses Inkubationsgemisches dazu verwendet, den oben beschriebenen MAPK2-Assay zu initiieren.

PKA (h) = test: Kinase inhibition assay (33P-ATP, P30 filter, scintillation counting): PKA; conditions: 30µM Testsubstanz (100 µM ATP); 40 min
PKB (h) = PKB (h) (Homo sapiens, UniProt P31749); test: Kinase inhibition assay (33P-ATP, P30 filter, scintillation counting): PKB; conditions: 40 min; 30µM Testsubstanz (100 µM ATP); read-out: Hemmung von Kinasen in % PKB (h)
Method: as §1, §2
as §3, with “PKBα (h)(5-10mU) wird in” for “c-RAF (ha)(5-10 mU) in”, “µl” for “µl wird”, “mit 8” for “mit 25”, “mM MOPS” for “mM Tris”, “pH 7.0, 0.2” for “pH 7.5,.0.02”, “mM EDTRA, 30 µM GRPRTSSFAEGKK,” for “mM EGTA, 0.66 mg/ml Myelin-Basisprotein,”

ROCKII (h) = test: Kinase inhibition assay (33P-ATP, P30 filter, scintillation counting): ROCK-II; conditions: 30µM Testsubstanz (100 µM ATP); 40 min
SAPK2a (h) = SAPK2a (h) (Homo sapiens, UniProt Q16539); test: Kinase inhibition assay (33P-ATP, P30 filter, scintillation counting): SAPK2a; conditions: 30µM Testsubstanz (100 µM ATP); read-out: Hemmung von Kinasen in % SAPK2a (h)
Method: as §1, §2
as §3, with “SAPK2a (h) wird” for “c-RAF (ha)(5-10 mU)”, “µl” for “µl wird”, “7,5, 0.02” for “7.5,.0.02”, “0.33” for “0.66”

Lck (h), sequence (P06239 whole entry): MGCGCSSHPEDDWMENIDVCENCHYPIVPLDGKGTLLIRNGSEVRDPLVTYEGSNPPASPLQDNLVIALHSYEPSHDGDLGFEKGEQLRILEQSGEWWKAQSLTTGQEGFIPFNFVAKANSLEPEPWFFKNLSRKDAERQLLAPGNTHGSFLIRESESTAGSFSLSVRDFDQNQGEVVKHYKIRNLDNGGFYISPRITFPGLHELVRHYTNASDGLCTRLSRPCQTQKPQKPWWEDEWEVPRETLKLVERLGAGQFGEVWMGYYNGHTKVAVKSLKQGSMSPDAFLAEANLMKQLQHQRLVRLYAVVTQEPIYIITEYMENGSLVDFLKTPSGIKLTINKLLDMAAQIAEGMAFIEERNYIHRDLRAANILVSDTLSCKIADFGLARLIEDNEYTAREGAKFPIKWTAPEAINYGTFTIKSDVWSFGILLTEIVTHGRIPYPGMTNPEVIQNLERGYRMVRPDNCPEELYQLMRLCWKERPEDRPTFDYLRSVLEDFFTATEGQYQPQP
MAPK1 (h), sequence (P27361 whole entry): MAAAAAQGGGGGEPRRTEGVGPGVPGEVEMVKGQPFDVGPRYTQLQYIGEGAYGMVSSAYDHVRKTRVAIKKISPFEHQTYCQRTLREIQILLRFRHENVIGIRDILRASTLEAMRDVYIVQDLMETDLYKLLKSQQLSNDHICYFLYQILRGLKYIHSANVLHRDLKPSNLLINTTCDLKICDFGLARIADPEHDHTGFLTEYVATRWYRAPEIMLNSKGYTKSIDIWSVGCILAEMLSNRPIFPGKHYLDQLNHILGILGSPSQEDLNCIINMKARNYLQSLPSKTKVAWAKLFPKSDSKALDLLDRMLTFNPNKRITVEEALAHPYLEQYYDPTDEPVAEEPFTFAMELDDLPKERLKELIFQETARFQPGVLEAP
SAPK2a (h), sequence (Q16539 whole entry): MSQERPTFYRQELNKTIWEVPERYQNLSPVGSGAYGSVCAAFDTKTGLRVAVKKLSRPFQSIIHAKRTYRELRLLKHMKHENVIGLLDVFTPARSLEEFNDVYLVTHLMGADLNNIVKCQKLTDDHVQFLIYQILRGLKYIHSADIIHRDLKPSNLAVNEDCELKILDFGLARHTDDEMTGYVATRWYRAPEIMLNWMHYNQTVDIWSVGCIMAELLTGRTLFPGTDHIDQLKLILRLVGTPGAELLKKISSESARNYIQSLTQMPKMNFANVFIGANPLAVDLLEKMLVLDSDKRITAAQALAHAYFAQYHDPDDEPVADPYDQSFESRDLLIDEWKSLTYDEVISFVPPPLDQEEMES
c-RAF (h), sequence (P04049 whole entry): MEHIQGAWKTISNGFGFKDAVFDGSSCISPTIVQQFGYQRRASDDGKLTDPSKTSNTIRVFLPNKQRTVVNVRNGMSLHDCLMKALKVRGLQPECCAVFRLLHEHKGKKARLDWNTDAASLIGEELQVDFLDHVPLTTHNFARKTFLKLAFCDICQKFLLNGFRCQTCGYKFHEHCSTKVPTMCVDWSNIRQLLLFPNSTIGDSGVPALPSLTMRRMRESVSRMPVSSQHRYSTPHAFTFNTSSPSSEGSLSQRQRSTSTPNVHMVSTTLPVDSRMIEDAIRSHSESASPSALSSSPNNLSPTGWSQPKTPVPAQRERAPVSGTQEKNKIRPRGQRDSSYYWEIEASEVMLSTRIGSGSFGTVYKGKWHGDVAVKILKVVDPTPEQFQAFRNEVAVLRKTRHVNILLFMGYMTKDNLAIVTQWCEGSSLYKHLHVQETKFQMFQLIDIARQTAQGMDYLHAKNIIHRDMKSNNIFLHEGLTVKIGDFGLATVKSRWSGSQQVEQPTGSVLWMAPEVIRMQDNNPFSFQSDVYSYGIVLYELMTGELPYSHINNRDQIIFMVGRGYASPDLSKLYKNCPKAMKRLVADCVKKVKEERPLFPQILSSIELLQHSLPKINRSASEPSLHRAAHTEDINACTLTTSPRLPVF
JNK3 (r), sequence (P49187 whole entry): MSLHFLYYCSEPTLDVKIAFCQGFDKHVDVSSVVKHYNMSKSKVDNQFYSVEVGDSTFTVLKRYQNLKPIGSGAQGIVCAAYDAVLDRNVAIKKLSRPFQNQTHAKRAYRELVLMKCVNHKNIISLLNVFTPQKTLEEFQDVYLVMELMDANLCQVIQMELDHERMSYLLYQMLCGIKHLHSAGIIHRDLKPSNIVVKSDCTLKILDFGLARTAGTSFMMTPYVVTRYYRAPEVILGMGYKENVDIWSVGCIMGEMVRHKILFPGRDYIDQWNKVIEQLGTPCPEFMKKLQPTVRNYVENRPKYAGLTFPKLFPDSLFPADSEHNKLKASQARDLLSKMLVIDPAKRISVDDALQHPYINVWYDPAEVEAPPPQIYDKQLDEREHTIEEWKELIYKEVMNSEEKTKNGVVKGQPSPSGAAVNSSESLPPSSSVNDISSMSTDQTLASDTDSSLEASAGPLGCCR
GSK3β (h), sequence (P49841 whole entry): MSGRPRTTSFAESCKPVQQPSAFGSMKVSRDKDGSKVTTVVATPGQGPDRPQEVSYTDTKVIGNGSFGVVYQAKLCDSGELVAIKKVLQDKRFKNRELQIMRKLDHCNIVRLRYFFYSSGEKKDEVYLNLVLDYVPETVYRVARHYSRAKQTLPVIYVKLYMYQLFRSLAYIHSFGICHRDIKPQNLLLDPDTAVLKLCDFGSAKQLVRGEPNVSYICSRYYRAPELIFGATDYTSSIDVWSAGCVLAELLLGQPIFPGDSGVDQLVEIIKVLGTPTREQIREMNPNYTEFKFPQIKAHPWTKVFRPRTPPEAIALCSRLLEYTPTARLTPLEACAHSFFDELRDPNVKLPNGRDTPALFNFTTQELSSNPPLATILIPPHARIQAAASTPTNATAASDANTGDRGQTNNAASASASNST
PKB (h), sequence (P31749 whole entry): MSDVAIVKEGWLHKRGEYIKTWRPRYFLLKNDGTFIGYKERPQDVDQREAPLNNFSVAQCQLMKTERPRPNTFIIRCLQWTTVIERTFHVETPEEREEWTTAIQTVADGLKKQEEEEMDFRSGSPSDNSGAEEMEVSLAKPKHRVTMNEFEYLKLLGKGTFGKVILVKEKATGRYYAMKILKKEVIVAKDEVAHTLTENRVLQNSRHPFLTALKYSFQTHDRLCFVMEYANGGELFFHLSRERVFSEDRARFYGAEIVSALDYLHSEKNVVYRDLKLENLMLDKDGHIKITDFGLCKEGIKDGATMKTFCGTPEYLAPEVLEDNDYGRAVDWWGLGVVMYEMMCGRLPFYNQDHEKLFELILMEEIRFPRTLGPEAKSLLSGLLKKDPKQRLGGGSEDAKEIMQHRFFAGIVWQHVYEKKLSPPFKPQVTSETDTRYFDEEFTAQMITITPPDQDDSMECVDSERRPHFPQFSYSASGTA
MAPK2 (h), sequence (P28482 whole entry): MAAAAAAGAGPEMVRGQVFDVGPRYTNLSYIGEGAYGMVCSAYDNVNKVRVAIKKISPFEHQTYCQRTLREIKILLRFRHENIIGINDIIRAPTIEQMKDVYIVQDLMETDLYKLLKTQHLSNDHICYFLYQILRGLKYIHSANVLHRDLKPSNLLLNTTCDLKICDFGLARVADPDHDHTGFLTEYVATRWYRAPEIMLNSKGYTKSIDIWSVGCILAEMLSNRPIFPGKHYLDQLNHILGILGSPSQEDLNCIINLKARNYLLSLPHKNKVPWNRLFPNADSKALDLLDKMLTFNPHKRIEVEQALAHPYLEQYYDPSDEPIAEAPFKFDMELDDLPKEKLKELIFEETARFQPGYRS
MEK1 (h), sequence (Q02750 whole entry): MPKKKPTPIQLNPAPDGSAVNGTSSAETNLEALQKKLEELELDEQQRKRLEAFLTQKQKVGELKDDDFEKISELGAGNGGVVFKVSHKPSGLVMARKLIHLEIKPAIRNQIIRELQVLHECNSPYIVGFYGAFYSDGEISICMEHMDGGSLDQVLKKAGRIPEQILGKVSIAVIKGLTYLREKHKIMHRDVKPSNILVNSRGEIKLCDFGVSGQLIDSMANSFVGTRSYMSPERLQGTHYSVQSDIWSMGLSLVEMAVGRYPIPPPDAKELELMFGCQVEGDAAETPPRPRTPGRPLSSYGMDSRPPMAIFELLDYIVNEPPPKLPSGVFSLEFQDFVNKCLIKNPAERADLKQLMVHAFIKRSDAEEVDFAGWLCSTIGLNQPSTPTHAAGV

c1ccc(Nc2ncnc3[nH]cnc23)cc1 [Verbd. 1, Phenyl-(9H-purin-6-yl)-amin]
inhibition at 30 µM (c-RAF (h)): 19%
inhibition at 30 µM (GSK3β (h)): 13%
inhibition at 30 µM (JNK3 (r)): 11%
inhibition at 30 µM (Lck (h)): 39%
inhibition at 30 µM (MAPK1 (h)): 22%
inhibition at 30 µM (MAPK2 (h)): 33%
inhibition at 30 µM (MEK1 (h)): 19%
Hemmung von Kinasen in % PKA (h) (PKA (h)): 32%
inhibition at 30 µM (PKB (h)): 14%
Hemmung von Kinasen in % ROCKII (h) (ROCKII (h)): 48%
inhibition at 30 µM (SAPK2a (h)): 34%

Fc1ccc(Nc2ncnc3[nH]cnc23)cc1 [Verbd. 2, (4-Fluoro-phenyl)-(9H-purin-6-yl)-amin]
inhibition at 30 µM (c-RAF (h)): 24%
inhibition at 30 µM (GSK3β (h)): 13%
inhibition at 30 µM (JNK3 (r)): 10%
inhibition at 30 µM (Lck (h)): 42%
inhibition at 30 µM (MAPK1 (h)): 33%
inhibition at 30 µM (MAPK2 (h)): 48%
inhibition at 30 µM (MEK1 (h)): 34%
Hemmung von Kinasen in % PKA (h) (PKA (h)): 40%
inhibition at 30 µM (PKB (h)): 18%
Hemmung von Kinasen in % ROCKII (h) (ROCKII (h)): 52%
inhibition at 30 µM (SAPK2a (h)): 30%

Nc1ncnc2c1ncn2Cc1ccc(F)cc1 [Verbd. 42a, 9-(4-Fluoro-benzyl)-9H-purin-6-ylamin]
inhibition at 30 µM (c-RAF (h)): 25%
inhibition at 30 µM (GSK3β (h)): 7%
inhibition at 30 µM (JNK3 (r)): 17%
inhibition at 30 µM (Lck (h)): 19%
inhibition at 30 µM (MAPK1 (h)): 17%
inhibition at 30 µM (MAPK2 (h)): 11%
inhibition at 30 µM (MEK1 (h)): 7%
Hemmung von Kinasen in % PKA (h) (PKA (h)): 1%
inhibition at 30 µM (PKB (h)): 0%
Hemmung von Kinasen in % ROCKII (h) (ROCKII (h)): 5%
inhibition at 30 µM (SAPK2a (h)): 7%

Cn1cnc2c(Sc3ccc(F)cc3)ncnc21 [Verbd. 18, 6-(4-Fluoro-phenylsulfanyl)-9-methyl-9H-purin]
inhibition at 30 µM (c-RAF (h)): 12%
inhibition at 30 µM (GSK3β (h)): 0%
inhibition at 30 µM (JNK3 (r)): 9%
inhibition at 30 µM (Lck (h)): 2%
inhibition at 30 µM (MAPK1 (h)): 9%
inhibition at 30 µM (MAPK2 (h)): 12%
inhibition at 30 µM (MEK1 (h)): 6%
Hemmung von Kinasen in % PKA (h) (PKA (h)): 1%
inhibition at 30 µM (PKB (h)): 0%
Hemmung von Kinasen in % ROCKII (h) (ROCKII (h)): 6%
inhibition at 30 µM (SAPK2a (h)): 38%

c1ccc(Sc2ncnc3[nH]ccc23)cc1 [Verbd. 52, 4-Phenylsulfanyl-7H-pyrrolo[2,3-d]pyrimidin]
inhibition at 30 µM (c-RAF (h)): 22%
inhibition at 30 µM (GSK3β (h)): 11%
inhibition at 30 µM (JNK3 (r)): 0%
inhibition at 30 µM (Lck (h)): 56%
inhibition at 30 µM (MAPK1 (h)): 11%
inhibition at 30 µM (MAPK2 (h)): 4%
inhibition at 30 µM (MEK1 (h)): 41%
Hemmung von Kinasen in % PKA (h) (PKA (h)): 0%
inhibition at 30 µM (PKB (h)): 0%
Hemmung von Kinasen in % ROCKII (h) (ROCKII (h)): 36%
inhibition at 30 µM (SAPK2a (h)): 56%

Cn1c(-c2ccc(S(C)(=O)=O)cc2)nc2c(Sc3ccccc3)ncnc21 [Verbd. 62, 8-(4-Methansulfonyl-phenyl)-9-methyl-6-phenylsulfanyl-9H-purin]
inhibition at 30 µM (c-RAF (h)): 10%
inhibition at 30 µM (GSK3β (h)): 0%
inhibition at 30 µM (JNK3 (r)): 7%
inhibition at 30 µM (Lck (h)): 16%
inhibition at 30 µM (MAPK1 (h)): 9%
inhibition at 30 µM (MAPK2 (h)): 3%
inhibition at 30 µM (MEK1 (h)): 4%
Hemmung von Kinasen in % PKA (h) (PKA (h)): 11%
inhibition at 30 µM (PKB (h)): 14%
Hemmung von Kinasen in % ROCKII (h) (ROCKII (h)): 5%
inhibition at 30 µM (SAPK2a (h)): 36%

Cn1c(C#CCCO)nc2c(Sc3ccccc3)ncnc21 [Verbd. 79, 4-(9-Methyl-6-phenylsulfanyl-9H-purin-8-yl)-but-3-yn-1-ol]
inhibition at 30 µM (c-RAF (h)): 0%
inhibition at 30 µM (GSK3β (h)): 0%
inhibition at 30 µM (JNK3 (r)): 0%
inhibition at 30 µM (Lck (h)): 11%
inhibition at 30 µM (MAPK1 (h)): 0%
inhibition at 30 µM (MAPK2 (h)): 0%
inhibition at 30 µM (MEK1 (h)): 0%
Hemmung von Kinasen in % PKA (h) (PKA (h)): 0%
inhibition at 30 µM (PKB (h)): 33%
Hemmung von Kinasen in % ROCKII (h) (ROCKII (h)): 0%
inhibition at 30 µM (SAPK2a (h)): 3%

Cn1c(-c2ccccc2)nc2c(Sc3ccc(F)cc3)ncnc21 [Verbd. 24, 6-(4-Fluoro-phenylsulfanyl)-9-methyl-8-phenyl-9H-purin]
inhibition at 30 µM (c-RAF (h)): 14%
inhibition at 30 µM (GSK3β (h)): 22%
inhibition at 30 µM (JNK3 (r)): 16%
inhibition at 30 µM (Lck (h)): 20%
inhibition at 30 µM (MAPK1 (h)): 11%
inhibition at 30 µM (MAPK2 (h)): 1%
inhibition at 30 µM (MEK1 (h)): 7%
Hemmung von Kinasen in % PKA (h) (PKA (h)): 3%
inhibition at 30 µM (PKB (h)): 29%
Hemmung von Kinasen in % ROCKII (h) (ROCKII (h)): 9%
inhibition at 30 µM (SAPK2a (h)): 29%

Cn1c(-c2ccc([S+](C)[O-])cc2)nc2c(Sc3ccccc3)ncnc21 (stereo not drawn) [Verbd. 59, 8-(4-Methansulfinyl-phenyl)-9-methyl-6-phenylsulfanyl-9H-purin]
inhibition at 30 µM (c-RAF (h)): 0%
inhibition at 30 µM (GSK3β (h)): 4%
inhibition at 30 µM (JNK3 (r)): 6%
inhibition at 30 µM (Lck (h)): 30%
inhibition at 30 µM (MAPK1 (h)): 0%
inhibition at 30 µM (MAPK2 (h)): 0%
inhibition at 30 µM (MEK1 (h)): 3%
Hemmung von Kinasen in % PKA (h) (PKA (h)): 0%
inhibition at 30 µM (PKB (h)): 4%
Hemmung von Kinasen in % ROCKII (h) (ROCKII (h)): 1%
inhibition at 30 µM (SAPK2a (h)): 27%

COc1ncnc2ncn(Cc3ccc(F)cc3)c12 [Verbd. 44, 7-(4-Fluoro-benzyl)-6-methoxy-7H-purin]
inhibition at 30 µM (c-RAF (h)): 0%
inhibition at 30 µM (GSK3β (h)): 5%
inhibition at 30 µM (JNK3 (r)): 30%
inhibition at 30 µM (Lck (h)): 0%
inhibition at 30 µM (MAPK1 (h)): 19%
inhibition at 30 µM (MAPK2 (h)): 3%
inhibition at 30 µM (MEK1 (h)): 3%
Hemmung von Kinasen in % PKA (h) (PKA (h)): 7%
inhibition at 30 µM (PKB (h)): 0%
Hemmung von Kinasen in % ROCKII (h) (ROCKII (h)): 1%
inhibition at 30 µM (SAPK2a (h)): 8%

Fc1ccc(CSc2ncnc3[nH]cnc23)cc1 [Verbd. 10, 6-(4-Fluoro-benzylsulfanyl)-9H-purin]
inhibition at 30 µM (c-RAF (h)): 47%
inhibition at 30 µM (GSK3β (h)): 0%
inhibition at 30 µM (JNK3 (r)): 12%
inhibition at 30 µM (Lck (h)): 16%
inhibition at 30 µM (MAPK1 (h)): 9%
inhibition at 30 µM (MAPK2 (h)): 5%
inhibition at 30 µM (MEK1 (h)): 0%
inhibition at 30 µM (PKB (h)): 6%
Hemmung von Kinasen in % ROCKII (h) (ROCKII (h)): 18%
inhibition at 30 µM (SAPK2a (h)): 29%
